Source: patent publication US9988680B2, “Non-natural nucleosides as theranostic agents” (Case Western Reserve University, priority 2011, dated 2018)

How the values were obtained:
[1] = molecular target: terminal deoxynucleotidyl transferase (TdT) (Bos taurus, UniProt P06526); experiment: Incorporation of natural and non-natural nucleotides by TdT (polymerization assay, Michaelis-Menten kinetics); type: biochemical; details: for Km / Vmax: incorporation by TdT, 1.5 μM single-stranded DNA substrate
Sequence of terminal deoxynucleotidyl transferase (TdT) (P06526 whole entry): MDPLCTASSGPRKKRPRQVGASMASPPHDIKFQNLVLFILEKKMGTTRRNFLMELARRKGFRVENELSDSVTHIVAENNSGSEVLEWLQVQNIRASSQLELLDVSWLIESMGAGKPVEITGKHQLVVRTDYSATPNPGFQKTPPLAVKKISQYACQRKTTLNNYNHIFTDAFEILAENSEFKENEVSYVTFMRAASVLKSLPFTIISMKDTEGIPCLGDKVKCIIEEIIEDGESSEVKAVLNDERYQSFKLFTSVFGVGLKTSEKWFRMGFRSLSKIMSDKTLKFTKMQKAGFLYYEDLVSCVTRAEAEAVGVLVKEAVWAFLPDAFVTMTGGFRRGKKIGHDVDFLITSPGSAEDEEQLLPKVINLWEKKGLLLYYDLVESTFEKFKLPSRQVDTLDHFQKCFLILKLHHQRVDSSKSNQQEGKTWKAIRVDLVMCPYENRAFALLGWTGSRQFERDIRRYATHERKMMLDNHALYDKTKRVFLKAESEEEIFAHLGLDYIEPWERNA
Protocol: All enzymatic assays were performed as previously described. […] Reactions were quenched with 200 Mm EDTA at variable times (5-600 s) and analyzed using denaturing gel electrophoresis. Time courses in product formation were fitted using eq 1: Y=mt+b(1) (1)
where y is the amount of product, m is the rate of the reaction, t is time, and b is the Y-intercept. Km and Vmax values were determined by fits of the data points to the Michaelis-Menten equation: […]
where Vmax is the maximal rate of nucleotide incorporation, Km is the Michaelis constant for dNTP, and [dNTP] is the concentration of nucleotide substrate. The IC50 value for 3-Eth-5-NITP was obtained using a nonlinear regression curve fit of the data to eq 3:
The biological function of TdT is to expand immunological diversity by randomly incorporating dNTPs into single-stranded DNA during V(D)J recombination. […] TdT also utilizes nucleotide analogues including 2′,3′-dideoxynucleotides, dinucleoside 5′,5′-tetraphosphates, and intrinsically fluorescent nucleotide analogues. In this report, we tested if TdT also incorporates indolyl-2′-deoxyribose-5′-triphosphates that bear non-natural moieties such as ethynyl and nitro groups at the 3- and 5-position, respectively, of the indole base. […] Aliquots of the reaction were quenched with EDTA at variable time points, and the polymerization reactions were then subjected to denaturing polyacrylamide gel electrophoresis to separate extended primers from unreacted substrate.
Time courses in product formation were generated using pseudo-first order reaction conditions in which 6 units of TdT were incubated with 1.5 μM DNA substrate and mixed with variable concentrations of non-natural nucleotide (0.05-50 μM). Each time course was fit to an equation for a straight line to define the rate of nucleotide incorporation (data not shown).

MOLT4 cells = experiment: In situ click reaction with AlexaFluor488-azide, flow cytometry, MOLT4; type: cell-based; details: MOLT4, 10 μM, 2 days
Protocol: (§1) In situ “click” reactions were performed using cells harvested after 2 days of treatment with DMSO, 3-Eth-5-NIdR (10, 40, or 100 μg mL^−1), 5-NIdR (100 μg mL^−1) or 5-ethynyl-2′-deoxyuridine (EdU) (10 μM). All cells were fixed with cold methanol. Under minimal lighting, cells were treated with 0.3 mL of saponin-based permeabilization and wash buffer for 45 min at 37° C. Click reactions were initiated by adding the click-iT reaction cocktail according to the instructions of the manufacturer (Invitrogen) followed by incubation at 37° C. for 90 min. Cells were then washed two times with saponin-based permeabilization and wash buffer. Cell pellets were dislodged using 0.5 mL solution of 10 μg mL^−1 PI and RNAase A in saponin-based permeabilization and wash buffer and then incubated for at least 15 min prior to flow cytometry analysis.
MOLT4 cells were treated with DMSO, EdU (a “clickable” thymidine analogue), 5-NIdR, and 3-Eth-5-NIdR for 2 days and then washed with PBS to remove any nucleoside and/or nucleotide not incorporated into DNA. After fixation and permeabilization, the cells were treated with AlexaFluor488-azide and Cu(I) catalyst to commence “clicking” of any incorporated nonnatural nucleotide. Dual parameter flow cytometry applying PI staining coupled with detection of the AlexaFluor488 fluorophore was used to detect the “clicked” non-natural nucleotide in cellular DNA. […] This high amount of “clicked” DNA reflects transport of EdU into the cell, conversion to the corresponding nucleoside triphosphate, and incorporation into the DNA of replicating cells. MOLT4 cells treated with 10 μg mL^−1 3-Eth-5-NIdR also show appreciable levels of AlexaFluor488 stained DNA (2.8%) after 2 days of treatment. Furthermore, the amount of “clicked” DNA is dosedependent as treatment with 40 μg mL^−1 Eth-5-NIdR yields a […] increase in AlexaFluor488 staining (6.5%). Identical experiments were performed using the Loucy cell line that lacks TdT and thus is less sensitive to the cytotoxic effects of the non-natural nucleoside (vide inf ra). […] Treatment with 40 μg mL^−1 of 3-Eth-5-NIdR produces low levels of “clicked” DNA (0.02%). […] Once incorporated into DNA, the non-natural nucleotide inhibits cellular DNA replication and induces apoptosis. Finally, it should be emphasized that low levels (<0.5%) of AlexaFluor488 staining are detected in cells treated with 100 μg mL^−1 5-NIdR.

Loucy cells = experiment: In situ click reaction with AlexaFluor488-azide, flow cytometry, Loucy; type: cell-based; details: 10 μM, 2 days
Protocol: as §1
MOLT4 cells were treated with DMSO, EdU (a “clickable” thymidine analogue), 5-NIdR, and 3-Eth-5-NIdR for 2 days and then washed with PBS to remove any nucleoside and/or nucleotide not incorporated into DNA. After fixation and permeabilization, the cells were treated with AlexaFluor488-azide and Cu(I) catalyst to commence “clicking” of any incorporated nonnatural nucleotide. […] Finally, it should be emphasized that low levels (<0.5%) of AlexaFluor488 staining are detected in cells treated with 100 μg mL^−1 5-NIdR.

`Nc1ncnc2c1ncn2[C@H]1C[C@H](O)[C@@H](COP(=O)(O)OP(=O)(O)OP(=O)(O)O)O1` [dATP] gave a Km ([1]; 6 units TdT) of 1.5 ± 0.4 µM and a Vmax ([1]; 6 units TdT) of 3.3 ± 0.3 nM/s.

In the case of `C#Cc1cn([C@H]2C[C@H](O)[C@@H](CO)O2)c(=O)[nH]c1=O` [EdU, 5-ethynyl-2′-deoxyuridine, reference compound], the “AlexaFluor488 stained (clicked) DNA” value (MOLT4 cells) is reported as 36.1% and the “AlexaFluor488 staining (clicked DNA)” value (Loucy cells) is reported as 59.2%.

In the case of `O=[N+]([O-])c1ccc2c(ccn2C2CC(O)C(COP(=O)(O)OP(=O)(O)OP(=O)(O)O)O2)c1` (centres unmarked) [5-NITP], the “utilization by TdT (elongation of 14-mer DNA substrate)” value ([1]; 100 μM nucleotide, 6 units TdT, 1.5 μM 14-mer (FIG. 2B)) is reported as “utilized by TdT as efficiently as the natural purines”, the “extension by TdT beyond the incorporated nucleotide” value ([1]; 100 μM nucleotide, 14-mer DNA, gel (FIG. 2B)) is reported as “rivals that of the natural purines” and the Km ([1]; 6 units TdT) is reported as 4.6 ± 0.6 µM. For the same compound, the Vmax ([1]; 6 units TdT) was 11.5 ± 0.4 nM/s.
